According to patent US20260144805A1, “CANNABIDIOL COMPOSITIONS FOR USE IN THE TREATMENT OF NEURODEGENERATIVE AND NEUROLOGICAL DISORDERS” (JAZZ PHARMACEUTICALS RESEARCH UK LIMITED, priority 2022, published 2026):

What was measured:
Type in all cases: in vivo
rTg4510 mice = test: Open Field (OF) test, locomotor activity in rTg4510 mouse model of Alzheimer's Disease (Example 2; DS = DS-C); settings: Week 31; for Locomotor activity totals, % vs Wild-type / Locomotor activity totals, % vs rTg4510 / Locomotor activity totals, Mean: Risperidone 0.125 mg/kg i.p.
Procedure: The aim of this study was to evaluate the efficacy of the present drug substance to modulate the agitation-like behaviours in the rTg4510 regulatable mouse model of Alzheimer's Disease (AD). Animals were tested in a behavioural assay, the Open Field (OF) test to measure locomotor activity (LMA). Activity was first assessed at a 21-week-old baseline to determine whether a hyperactive phenotype (to be used as a proxy for agitation) had developed and was further assessed at 2 subsequent ages in acute and chronic efficacy phases.
Ninety male rTg4510 (CC) mice and 15 wild-type (WW) (Tg(Camk2a-tTA)1Mmay Fgf14^Tg(tetO-MAPT*P301L)4510Kha/J, Jax strain #024854, licensed from the Mayo Clinic, USA) were split into 2 cohorts, 4 weeks apart in age; cohort 1 contained 53 mice (8 WW and 45 CC) and cohort 2 contained 52 mice (7 WW and 45 CC). Relative humidity was 55±15% throughout. Mice were housed in individually ventilated cages on a 12 h/12 h light/dark cycle (lights on at 07.00 h; illumination by red light during the dark phase), at an ambient temperature of 24±4° C. with free access to standard rodent maintenance diet and filtered water. Animals were allowed to acclimatise to the above conditions for 7-10 days prior to the study start. All housing groupings were preserved until the mice were approximately 5 months old, at which point they were singly housed.
Doxycycline administration: a subset of animals in cohort 2 (n=15) was administered 2× daily oral bolus doses of doxycycline hyclate (10 mg/kg p.o. in 5% glucose, Sigma Aldrich) at 13 weeks of age, followed by continuous exposure to normal lab chow containing 200 ppm doxycycline (Envigo Teklad 2018 TD.00502 no colourants, irradiated and vacuum-packed). All other animals received Envigo Teklad 2018 diet. All diet was provided ad libitum.
Following this regime, animals were evaluated in Open Field (OF) test, before being deeply anaesthetised at the end of the behavioural testing prior to biofluid sampling and tissue harvesting.
Specifically, the material was solubilised by the addition of 50 μL of 10% glacial acetic acid and making up to volume with 0.9% saline (Aquapharm, Animal Care, York, UK, Lot 21030311).
Drug Substance (DS): (i.e., DS-C, See Table B in Example 1) Dosing volume was 10 mL/kg and DS was formulated at the 150 mg/kg dose in a vehicle of ethanol: Kolliphor HS15: 0.9% saline (1:12:87, w/w/v) which were stored at room temperature and added at approximately 60° C. to form solutions which were subsequently stable at room temperature. All dosing formulations were protected from light whenever possible. Dosing solutions were made fresh on the day of dosing, with lower dose formulations being prepared by dilution from the 150 mg/kg dosing solution at room temperature.
Locomotor activity was assessed by OF test in the light phase of the light-dark cycle at weeks 21, 26 and 31. An automated beam break apparatus (40 cages) was used for the assessment of locomotor activity in rats and mice. Each cage had 4 beams; 1 ‘y’ and 3 ‘x’ which triggered a signal through capacitors when the beam was broken. Signals were collected by data loggers and processed accordingly. All animals were placed in the apparatus and spontaneous activity was assessed for a four-hour period between 0900 and 1300. Animals were then removed from the apparatus and returned to their home cages. LMA assessment was split over 2 consecutive days at each time point.
For locomotor data, a log (x+1) transformation was used. For weeks 21 & 26, means and SEMs were calculated from the transformed data. Analysis was by Friedman's two-way nonparametric ANOVA with treatment and test day as factors to compare each group to the WW animals, and (where appropriate) Doxycycline with the untreated rTg4510 group. For week 30, data excluding the WW and Doxycycline groups for each time period were analysed by robust regression model using M estimation, Huber weighting, using the default parameter c=1.345. […]

[1] = tested on: valproic acid-induced autism spectrum disorder (ASD) mouse model; test: Valproic acid-induced ASD model, autism-like behaviors, DS vs sCBD and risperidone (Example 6, Table P); set-up: key to Adult open field hyperactivity (spontaneous LMA on day 1) / Adult open field hyperactivity (LMA on day 2) / Adult marble burying / Adult grooming / Juvenile vocalisation: +: improvement; Ø: no change; −: not tested; settings: 0.125 mg/kg I.P.
Text: (§1) The main objective of the following study was to assess the effect of the drug substance (DS) of Example 1 in ameliorating autism-like behavior in valproic acid-induced autism spectrum disorder (ASD) mouse model (FIGS. 19A-B).

[2] = tested on: valproic acid-induced autism spectrum disorder (ASD) mouse model; test: Valproic acid-induced ASD model, social behavior (Example 6, Table P); set-up: key: +: improvement; Ø: no change; −: not tested; settings: 0.125 mg/kg I.P.
Text: as §1

**Q.** What does the source list for `Cc1nc2n(c(=O)c1CCN1CCC(c3noc4cc(F)ccc34)CC1)CCCC2` [Risperidone]?
**A.** Locomotor activity totals, % vs Wild-type (rTg4510 mice; 0-30 minutes): 95.7%; Locomotor activity totals, % vs rTg4510 (rTg4510 mice; 0-30 minutes): 40.1%; Locomotor activity totals, Mean (rTg4510 mice; 0-30 minutes): 525.99; Locomotor activity totals, % vs Wild-type (rTg4510 mice; 0-60 minutes): 135.0%; Locomotor activity totals, % vs rTg4510 (rTg4510 mice; 0-60 minutes): 49.4%; Locomotor activity totals, Mean (rTg4510 mice; 0-60 minutes): 1313.59; hyperlocomotion vs rTg4510(vehicle) (rTg4510 mice; 0-60 minutes, risperidone 0.125 mg/kg/d): significantly reversed; Locomotor activity totals, % vs Wild-type (rTg4510 mice; 30-60 minutes): 183.6%; Locomotor activity totals, % vs rTg4510 (rTg4510 mice; 30-60 minutes): 46.9%; Locomotor activity totals, Mean (rTg4510 mice; 30-60 minutes): 641.92; Locomotor activity totals, % vs Wild-type (rTg4510 mice; 60-90 minutes): 104.9%; Locomotor activity totals, % vs rTg4510 (rTg4510 mice; 60-90 minutes): 24.1%; Locomotor activity totals, Mean (rTg4510 mice; 60-90 minutes): 140.56; Locomotor activity totals, % vs Wild-type (rTg4510 mice; 60-120 minutes): 134.8%; Locomotor activity totals, % vs rTg4510 (rTg4510 mice; 60-120 minutes): 39.8%; Locomotor activity totals, Mean (rTg4510 mice; 60-120 minutes): 384.49; Locomotor activity totals, % vs Wild-type (rTg4510 mice; 90-120 minutes): 241.3%; Locomotor activity totals, % vs rTg4510 (rTg4510 mice; 90-120 minutes): 79.0%; Locomotor activity totals, Mean (rTg4510 mice; 90-120 minutes): 132.22; Locomotor activity totals, % vs Wild-type (rTg4510 mice; 120-150 minutes): 222.8%; Locomotor activity totals, % vs rTg4510 (rTg4510 mice; 120-150 minutes): 130.5%; Locomotor activity totals, Mean (rTg4510 mice; 120-150 minutes): 210.31; Locomotor activity totals, % vs Wild-type (rTg4510 mice; 150-180 minutes): 399.5%; Locomotor activity totals, % vs rTg4510 (rTg4510 mice; 150-180 minutes): 103.1%; Locomotor activity totals, Mean (rTg4510 mice; 150-180 minutes): 82.39; Locomotor activity totals, % vs Wild-type (rTg4510 mice; 180-210 minutes): 136.3%; Locomotor activity totals, % vs rTg4510 (rTg4510 mice; 180-210 minutes): 103.4%; Locomotor activity totals, Mean (rTg4510 mice; 180-210 minutes): 27.84; Locomotor activity totals, % vs Wild-type (rTg4510 mice; 210-240 minutes): 37.5%; Locomotor activity totals, % vs rTg4510 (rTg4510 mice; 210-240 minutes): 56.3%; Locomotor activity totals, Mean (rTg4510 mice; 210-240 minutes): 6.99; Adult grooming ([1]; control beside DS): +; Adult marble burying ([1]; control beside DS): +; Adult open field hyperactivity (LMA on day 2) ([1]; control beside DS): +; Adult open field hyperactivity (spontaneous LMA on day 1) ([1]; control beside DS): +; Adult grooming ([1]; control beside sCBD): +; Adult marble burying ([1]; control beside sCBD): +; Adult open field hyperactivity (LMA on day 2) ([1]; control beside sCBD): +; Adult open field hyperactivity (spontaneous LMA on day 1) ([1]; control beside sCBD): +; Adult marble burying ([1]; control beside sCBD-2): +; Adult open field hyperactivity (LMA on day 2) ([1]; control beside sCBD-2): Ø; Adult open field hyperactivity (spontaneous LMA on day 1) ([1]; control beside sCBD-2): +; Adult active social behavior ([2]; control beside DS): Ø; Juvenile play behavior ([2]; control beside DS): Ø; Adult active social behavior ([2]; control beside sCBD): +; Juvenile play behavior ([2]; control beside sCBD): +; Adult active social behavior ([2]; control beside sCBD-2): Ø; Juvenile play behavior ([2]; control beside sCBD-2): Ø
